Experimental data published in US4971967A, “Quinolinecarboxylic acid derivatives, antibacterial compositions and use” (Kanebo Ltd, priority 1989, dated 1990).
≈ marks a conversion by molar mass, not a printed value.

How the values were obtained:
[1] = system: Pseudomonas aeruginosa IFO 3445; test: Antibacterial activity (MIC), P. aeruginosa IFO 3445; type: cell-based; settings: Pseudomonas aeruginosa, IFO3445, Pseudomonas aeruginosa IFO 3445, Gram -; read-out: Minimum inhibitory concentration (MIC)
In short: (§1)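 MIC determined by the Japan Society of Chemotherapy standard method. Compounds dissolved at 5000 μg/ml (stock) in 0.1 N NaOH or sterile water, then diluted with sterile water to a 1000 μg/ml standard solution.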

[2] = system: Morganella morganii IFO 3848; test: Antibacterial activity (MIC), Morganella morganii IFO 3848; type: cell-based; settings: Morganella morganii, IFO3848, Morganella morganii IFO 3848, Gram -; read-out: Minimum inhibitory concentration (MIC)
In short: as §1

Proteus vulgaris OX-19 = test: Antibacterial activity (MIC), Proteus vulgaris OX-19; type: cell-based; settings: OX19; Proteus vulgaris OX-19, Gram -; read-out: Minimum inhibitory concentration (MIC)
In short: as §1

[3] = Acute toxicity (LD50) (Experiment 6); settings: mouse, in vivo; oral, mice fasted 18 hours, observed for a week
Method: (§2) The compound (O) or (P) of the present invention was suspended in sterilized distilled water to prepare a suspension. The suspension was orally adminstered to ddY male mice (5 weeks age, weighing 20 to 25 g, 5 mice in each group), which had been fasted for 18 hours.

Enterobacter cloacae 963 = test: Antibacterial activity (MIC), Enterobacter cloacae 963; type: cell-based; settings: Enterobacter cloacae, 963, Enterobacter cloacae 963, Gram -; read-out: Minimum inhibitory concentration (MIC)
In short: as §1

[4] = system: Acinetobacter calcoaceticus AC 54; test: Antibacterial activity (MIC), Acinetobacter calcoaceticus AC 54; type: cell-based; settings: AC54; Acinetobacter calcoaceticus AC 54, Gram -; read-out: Minimum inhibitory concentration (MIC)
In short: as §1

[5] = system: Staphylococcus aureus FDA 209P JC-1; test: Antibacterial activity (MIC), S. aureus FDA 209P JC-1; type: cell-based; settings: FDA209P; Staphylococcus aureus FDA 209P JC-1, Gram +; read-out: Minimum inhibitory concentration (MIC)
In short: as §1

[6] = system: Klebsiella pneumoniae PCI-602; test: Antibacterial activity (MIC), Klebsiella pneumoniae PCI-602; type: cell-based; settings: PCI602; Klebsiella pneumoniae PCI-602, Gram -; read-out: Minimum inhibitory concentration (MIC)
In short: as §1

[7] = system: Staphylococcus aureus IID 803; test: Effect on treatment of general infectious disease, S. aureus IID 803 (Experiment 4); type: in vivo, ddY male mice infected with Staphylococcus aureus; settings: IID803, 168 h, oral, 1 h after i.p. infection, 2.1×10^7 CFU/mouse, survival after one week
Method: (§3) The test microorganisms were subjected to standing culture in Trypto-Soya Agar "Nissui" (made by Nissui Seiyaku K.K., Japan) at 37° C. for 16 to 18 hours. The culture was then diluted with PBS (Dulbecco's phosphate buffered saline) and mixed with an equivalent amount of 10% (w/v) Mucin (BACTO MUCIN BACTERIOLOGICAL, made by Difco Co.) to prepare a microorganism solution. The thus prepared microorganism solution (0.5 ml each) was intraperitoneally inoculated to ddY male mice (5 weeks age, weighing 25-28 g, 5 mice in each group), to infect the animals. One hour after the infection, the compound (A) or (J) of the present invention or the known compound (X) suspended in 1% (w/v) aqueous gum arabic or the known compound (Y) dissolved in sterilized distilled water was orally adiministered to mice.
(§4) The mice were daily observed for one week, and from the survival number of mice after one week, the 50% effective dose (ED50) was calculated by Weil method.
Staphylococcus aureus IID 803 (2.1×10^7 CFU/mouse)
(§5) The procedure of Experiment 3 was repeated except that ddY male mice weighing 24 to 28 g were employed.

[8] = system: Escherichia coli NIHJ JC-2; test: Antibacterial activity (MIC), E. coli NIHJ JC-2; type: cell-based; settings: NIHJJC2; Escherichia coli NIHJ JC-2, Gram -; read-out: Minimum inhibitory concentration (MIC)
In short: as §1

[9] = Low toxicity (Experiments 5 and 6); type: in vivo, ddY male mice; settings: result in words
Method: The compound (A) or (J) of the present invention was suspended in 1% (w/v) aqueous gum arabic to prepare a suspension in concentration of 100 mg/ml. The suspension was orally administered to ddY male mice (5 weeks age, weighing 20 to 25 g, 5 mice in each group), which had been fasted for 18 hours, at a rate of 2000 mg/kg body weight of the compound (A) or (J).
as §2

[10] = system: Salmonella typhimurium IID 971; test: Antibacterial activity (MIC), Salmonella typhimurium IID 971; type: cell-based; settings: Salmonella enterica; Salmonella typhimurium IID 971, Gram -; read-out: Minimum inhibitory concentration (MIC)
In short: as §1

[11] = system: Pseudomonas aeruginosa E-2; test: Effect on treatment of general infectious disease, P. aeruginosa E-2 (Experiment 4); type: in vivo, ddY male mice infected with Pseudomonas aeruginosa; settings: E2, 168 h, oral, 1 h after i.p. infection, 3.4×10^4 CFU/mouse, survival after one week
Method: as §3, §4
Pseudomonas aeruginosa E-2 (3.4×10^4 CFU/mouse)
as §5

[12] = system: Enterobacter aerogenes ATCC 13048; test: Antibacterial activity (MIC), Enterobacter aerogenes ATCC 13048; type: cell-based; settings: Klebsiella aerogenes, ATCC13048; Enterobacter aerogenes ATCC 13048, Gram -; read-out: Minimum inhibitory concentration (MIC)
In short: as §1

Escherichia coli KC-14 = test: Antibacterial activity (MIC), E. coli KC-14; type: cell-based; settings: KC14; Escherichia coli KC-14, Gram -; read-out: Minimum inhibitory concentration (MIC)
In short: as §1

[13] = system: Proteus mirabilis IFO 3849; test: Antibacterial activity (MIC), Proteus mirabilis IFO 3849; type: cell-based; settings: IFO3849; Proteus mirabilis IFO 3849, Gram -; read-out: Minimum inhibitory concentration (MIC)
In short: as §1

[14] = system: Staphylococcus aureus IID 803; test: Antibacterial activity (MIC), S. aureus IID 803; type: cell-based; settings: IID803; Staphylococcus aureus IID 803, Gram +; read-out: Minimum inhibitory concentration (MIC)
In short: as §1

[15] = system: Serratia marcescens IAM 1184; test: Antibacterial activity (MIC), Serratia marcescens IAM 1184; type: cell-based; settings: Serratia marcescens, IAM1184, Serratia marcescens IAM 1184, Gram -; read-out: Minimum inhibitory concentration (MIC)
In short: as §1

[16] = system: Staphylococcus epidermidis IAM-1296; test: Antibacterial activity (MIC), S. epidermidis IAM-1296; type: cell-based; settings: Staphylococcus epidermidis, IAM1296, Staphylococcus epidermidis IAM-1296, Gram +; read-out: Minimum inhibitory concentration (MIC)
In short: as §1

Shigella sonnei EW-33 = test: Antibacterial activity (MIC), Shigella sonnei EW-33; type: cell-based; settings: Shigella sonnei, EW33, Shigella sonnei EW-33, Gram -; read-out: Minimum inhibitory concentration (MIC)
In short: as §1

[17] = system: Pseudomonas aeruginosa NCTC 10490; test: Antibacterial activity (MIC), P. aeruginosa NCTC 10490; type: cell-based; settings: Pseudomonas aeruginosa, NCTC10490, Pseudomonas aeruginosa NCTC 10490, Gram -; read-out: Minimum inhibitory concentration (MIC)
In short: as §1

[18] = system: Citrobacter freundii NIHJ 10018-68; test: Antibacterial activity (MIC), Citrobacter freundii NIHJ 10018-68; type: cell-based; settings: Citrobacter freundii, NIHJ10018, Citrobacter freundii NIHJ 10018-68, Gram -; read-out: Minimum inhibitory concentration (MIC)
In short: as §1

[19] = system: Bacillus subtilis ATCC 6633; test: Antibacterial activity (MIC), Bacillus subtilis ATCC 6633; type: cell-based; settings: Bacillus subtilis, ATCC6633, Bacillus subtilis ATCC 6633, Gram +; read-out: Minimum inhibitory concentration (MIC)
In short: as §1

[20] = system: Micrococcus luteus ATCC 9341; test: Antibacterial activity (MIC), Micrococcus luteus ATCC 9341; type: cell-based; settings: ATCC9341; Micrococcus luteus ATCC 9341, Gram +; read-out: Minimum inhibitory concentration (MIC)
In short: as §1

[21] = system: Pseudomonas aeruginosa E-2; test: Antibacterial activity (MIC), P. aeruginosa E-2; type: cell-based; settings: E2; Pseudomonas aeruginosa E-2, Gram -; read-out: Minimum inhibitory concentration (MIC)
In short: as §1

infection = test: Protective effects against infection (Experiments 3 and 4); type: in vivo, ddY male mice; settings: result in words
Method: as §3, §4, §5

[22] = system: Streptococcus faecalis IID 682; test: Antibacterial activity (MIC), Streptococcus faecalis IID 682; type: cell-based; settings: Enterococcus faecalis, IID682, Streptococcus faecalis IID 682, Gram +; read-out: Minimum inhibitory concentration (MIC)
In short: as §1

CC1CN(c2c(F)cc3c(=O)c(C(=O)O)c4scc5n4c3c2N(C)C5)CC(C)N1C (stereo not drawn) [Compound (P), 9,1-(Methylimino)methano-7-fluoro-8-(3,4,5-trimethyl-1-piperazinyl)-5-oxo-5H-thiazolo[3,2-a]quinoline-4-carboxylic acid]
MIC [1]: 3.13 µg/mL (≈ 7.27 µM) | MIC [2]: 0.39 µg/mL (≈ 0.906 µM) | MIC (Proteus vulgaris OX-19): 0.1 µg/mL (≈ 0.232 µM) | LD50 at 168 h [3]: 1070 mg/kg | MIC (Enterobacter cloacae 963): 0.2 µg/mL (≈ 0.465 µM) | MIC [4]: 0.025 µg/mL (≈ 0.0581 µM) | MIC [5]: 0.025 µg/mL (≈ 0.0581 µM) | MIC [6]: 0.006 µg/mL (≈ 0.0139 µM) | ED50 [7]: 1.9 mg/kg | MIC [8]: 0.1 µg/mL (≈ 0.232 µM) | toxicity [9]: low toxicity | MIC [10]: 0.39 µg/mL (≈ 0.906 µM) | ED50 [11]: 11.1 mg/kg | MIC [12]: 0.2 µg/mL (≈ 0.465 µM) | MIC (Escherichia coli KC-14): 0.1 µg/mL (≈ 0.232 µM) | MIC [13]: 0.78 µg/mL (≈ 1.81 µM) | MIC [14]: 0.025 µg/mL (≈ 0.0581 µM) | MIC [15]: 1.56 µg/mL (≈ 3.62 µM) | MIC [16]: 0.1 µg/mL (≈ 0.232 µM) | MIC (Shigella sonnei EW-33): 0.05 µg/mL (≈ 0.116 µM) | MIC [17]: 1.56 µg/mL (≈ 3.62 µM) | MIC [18]: 1.56 µg/mL (≈ 3.62 µM) | MIC [19]: 0.006 µg/mL (≈ 0.0139 µM) | MIC [20]: 0.39 µg/mL (≈ 0.906 µM) | MIC [21]: 1.56 µg/mL (≈ 3.62 µM) | protective effects against infection (infection): excellent protective effects against infection | MIC [22]: 0.2 µg/mL (≈ 0.465 µM)
